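Briefly, cells in 96-well plates were exposed to five compound concentrations for 48 h, and endpoints were estimated by linear interpolation. At the GI50, growth is halved. Definition used: TGI = concentration required for complete inhibition of growth.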
Tests used:
Assay in all cases: NCI-60 cell line screen, 48 h
[1] = test system: SK-MEL-2 melanoma
[2] = test system: KM12 colon
[3] = test system: OVCAR-8 ovarian
[4] = test system: 786-0 renal
[5] = test system: OVCAR-4 ovarian
[6] = test system: SN12C renal
[7] = test system: SNB-75 CNS
[8] = test system: HOP-92 NSCLC
[9] = test system: SF-295 CNS
[10] = test system: SW-620 colon
[11] = test system: NCI-H460 lung
[12] = test system: SK-OV-3 ovarian
[13] = test system: SK-MEL-5 melanoma
[14] = test system: MOLT-4 leukemia
[15] = test system: HCT-116 colon
[16] = test system: MCF7 breast
[17] = test system: UO-31 renal
[18] = test system: MDA-MB-231 breast
[19] = test system: DU-145 prostate
[20] = test system: ACHN renal
[21] = test system: HCC-2998 colon
[22] = test system: OVCAR-3 ovarian
[23] = test system: K-562 leukemia
[24] = test system: RXF 393 renal
[25] = test system: MALME-3M melanoma
[26] = test system: MDA-MB-435
[27] = test system: HCT-15 colon
[28] = test system: UACC-257 melanoma
[29] = test system: A549 NSCLC
[30] = test system: HT29 colon
[31] = test system: IGROV1 ovarian
[32] = test system: OVCAR-5 ovarian
[33] = test system: SF-539 CNS
[34] = test system: RPMI-8226 leukemia
[35] = test system: HOP-62 NSCLC
[36] = test system: CCRF-CEM leukemia
[37] = test system: T-47D breast
[38] = test system: HL-60(TB) leukemia
[39] = test system: A498 renal
[40] = test system: SNB-19 CNS
[41] = test system: SK-MEL-28 melanoma
[42] = test system: CAKI-1 renal
[43] = test system: BT-549 breast
[44] = test system: NCI-H522 lung
[45] = test system: COLO 205 colon
[46] = test system: EKVX NSCLC
[47] = test system: LOX IMVI melanoma
[48] = test system: TK-10 renal
[49] = test system: NCI/ADR-RES ovarian
[50] = test system: PC-3 prostate
[51] = test system: HS 578T breast
[52] = test system: NCI-H226 lung
[53] = test system: NCI-H23 lung
[54] = test system: U251 CNS
[55] = test system: M14 melanoma
[56] = test system: SR leukemia
[57] = test system: SF-268 CNS
[58] = test system: UACC-62 melanoma

**Q.** How did the GI50 [1] turn out when `O=C1c2ccccc2C(=O)c2c(N=Nc3[nH]c(=S)[nH]c3O)cccc21` was run?
**A.** 1700 nM

**Q.** What about the TGI [1] of the same compound?
**A.** > 100000 nM

**Q.** What about the GI50 [2] of the same compound?
**A.** 454 nM

**Q.** What about the TGI [2] of the same compound?
**A.** > 100000 nM

**Q.** And the GI50 [3]?
**A.** 2470 nM

**Q.** And the TGI [3]?
**A.** > 100000 nM

**Q.** What about the GI50 [4] of the same compound?
**A.** 1110 nM

**Q.** And the TGI [4]?
**A.** > 100000 nM

**Q.** What about the GI50 [5] of the same compound?
**A.** 2120 nM

**Q.** What about the TGI [5] of the same compound?
**A.** > 100000 nM

**Q.** What about the GI50 [6] of the same compound?
**A.** 1490 nM

**Q.** And the TGI [6]?
**A.** > 100000 nM

**Q.** What about the GI50 [7] of the same compound?
**A.** 346 nM

**Q.** And the TGI [7]?
**A.** 2960 nM

**Q.** And the GI50 [8]?
**A.** 877 nM

**Q.** And the TGI [8]?
**A.** > 57200 nM

**Q.** What about the GI50 [9] of the same compound?
**A.** 983 nM

**Q.** And the TGI [9]?
**A.** 19800 nM

**Q.** And the GI50 [10]?
**A.** 496 nM

**Q.** What about the TGI [10] of the same compound?
**A.** > 100000 nM

**Q.** And the GI50 [11]?
**A.** 849 nM

**Q.** What about the TGI [11] of the same compound?
**A.** > 100000 nM

**Q.** What about the GI50 [12] of the same compound?
**A.** 3860 nM

**Q.** What about the TGI [12] of the same compound?
**A.** > 100000 nM

**Q.** What about the GI50 [13] of the same compound?
**A.** 743 nM

**Q.** And the TGI [13]?
**A.** > 100000 nM

**Q.** What about the GI50 [14] of the same compound?
**A.** 1100 nM

**Q.** And the TGI [14]?
**A.** > 100000 nM

**Q.** What about the GI50 [15] of the same compound?
**A.** 462 nM

**Q.** And the TGI [15]?
**A.** > 100000 nM

**Q.** And the GI50 [16]?
**A.** 357 nM

**Q.** What about the TGI [16] of the same compound?
**A.** > 100000 nM

**Q.** And the GI50 [17]?
**A.** 792 nM

**Q.** What about the TGI [17] of the same compound?
**A.** > 21400 nM

**Q.** What about the GI50 [18] of the same compound?
**A.** 1300 nM

**Q.** What about the TGI [18] of the same compound?
**A.** 18300 nM

**Q.** What about the GI50 [19] of the same compound?
**A.** 984 nM

**Q.** And the TGI [19]?
**A.** > 42400 nM

**Q.** What about the GI50 [20] of the same compound?
**A.** 1900 nM

**Q.** And the TGI [20]?
**A.** > 100000 nM

**Q.** And the GI50 [21]?
**A.** 3080 nM

**Q.** What about the TGI [21] of the same compound?
**A.** > 100000 nM

**Q.** And the GI50 [22]?
**A.** 368 nM

**Q.** And the GI50 [23]?
**A.** 434 nM

**Q.** And the TGI [23]?
**A.** > 100000 nM

**Q.** What about the GI50 [24] of the same compound?
**A.** 508 nM

**Q.** What about the TGI [24] of the same compound?
**A.** 3210 nM

**Q.** What about the GI50 [25] of the same compound?
**A.** 769 nM

**Q.** And the TGI [25]?
**A.** > 100000 nM

**Q.** What about the GI50 [26] of the same compound?
**A.** 224 nM

**Q.** And the TGI [26]?
**A.** 630 nM

**Q.** What about the GI50 [27] of the same compound?
**A.** 689 nM

**Q.** And the TGI [27]?
**A.** > 100000 nM

**Q.** And the GI50 [28]?
**A.** > 100000 nM

**Q.** And the TGI [28]?
**A.** > 100000 nM

**Q.** And the GI50 [29]?
**A.** 1750 nM

**Q.** What about the TGI [29] of the same compound?
**A.** > 100000 nM

**Q.** And the GI50 [30]?
**A.** 2530 nM

**Q.** What about the TGI [30] of the same compound?
**A.** > 100000 nM

**Q.** And the GI50 [31]?
**A.** 968 nM

**Q.** What about the TGI [31] of the same compound?
**A.** > 100000 nM

**Q.** What about the GI50 [32] of the same compound?
**A.** 4170 nM

**Q.** And the TGI [32]?
**A.** > 100000 nM

**Q.** And the GI50 [33]?
**A.** 424 nM

**Q.** What about the TGI [33] of the same compound?
**A.** 2740 nM

**Q.** And the GI50 [34]?
**A.** 1090 nM

**Q.** And the TGI [34]?
**A.** > 100000 nM

**Q.** What about the GI50 [35] of the same compound?
**A.** 1840 nM

**Q.** And the TGI [35]?
**A.** > 61600 nM

**Q.** And the GI50 [36]?
**A.** 384 nM

**Q.** And the TGI [36]?
**A.** > 100000 nM

**Q.** And the GI50 [37]?
**A.** 1640 nM

**Q.** What about the TGI [37] of the same compound?
**A.** > 100000 nM

**Q.** And the GI50 [38]?
**A.** 1130 nM

**Q.** And the TGI [38]?
**A.** > 100000 nM

**Q.** And the GI50 [39]?
**A.** 104 nM

**Q.** And the TGI [39]?
**A.** 1130 nM

**Q.** What about the GI50 [40] of the same compound?
**A.** 997 nM

**Q.** And the TGI [40]?
**A.** > 74800 nM

**Q.** And the GI50 [41]?
**A.** 5200 nM

**Q.** What about the TGI [41] of the same compound?
**A.** > 100000 nM

**Q.** What about the GI50 [42] of the same compound?
**A.** 548 nM

**Q.** And the TGI [42]?
**A.** > 75000 nM

**Q.** What about the GI50 [43] of the same compound?
**A.** 1120 nM

**Q.** And the TGI [43]?
**A.** 43300 nM

**Q.** And the GI50 [44]?
**A.** 425 nM

**Q.** And the TGI [44]?
**A.** > 34500 nM

**Q.** And the GI50 [45]?
**A.** 2410 nM

**Q.** And the TGI [45]?
**A.** > 100000 nM

**Q.** And the GI50 [46]?
**A.** 4710 nM

**Q.** And the TGI [46]?
**A.** > 100000 nM

**Q.** What about the GI50 [47] of the same compound?
**A.** 734 nM

**Q.** And the TGI [47]?
**A.** > 100000 nM

**Q.** What about the GI50 [48] of the same compound?
**A.** 5230 nM

**Q.** And the TGI [48]?
**A.** > 100000 nM

**Q.** And the GI50 [49]?
**A.** 2450 nM

**Q.** What about the TGI [49] of the same compound?
**A.** > 28200 nM

**Q.** And the GI50 [50]?
**A.** 816 nM

**Q.** And the TGI [50]?
**A.** > 100000 nM

**Q.** What about the GI50 [51] of the same compound?
**A.** 462 nM

**Q.** What about the TGI [51] of the same compound?
**A.** 47900 nM

**Q.** And the GI50 [52]?
**A.** 4330 nM

**Q.** And the TGI [52]?
**A.** > 56900 nM

**Q.** What about the GI50 [53] of the same compound?
**A.** 1670 nM

**Q.** And the TGI [53]?
**A.** 38600 nM

**Q.** What about the GI50 [54] of the same compound?
**A.** 676 nM

**Q.** What about the TGI [54] of the same compound?
**A.** 56700 nM

**Q.** And the GI50 [55]?
**A.** 579 nM

**Q.** What about the TGI [55] of the same compound?
**A.** > 100000 nM

**Q.** What about the GI50 [56] of the same compound?
**A.** 472 nM

**Q.** What about the TGI [56] of the same compound?
**A.** > 100000 nM

**Q.** And the GI50 [57]?
**A.** 1560 nM

**Q.** What about the TGI [57] of the same compound?
**A.** 98900 nM

**Q.** What about the GI50 [58] of the same compound?
**A.** 604 nM

**Q.** What about the TGI [58] of the same compound?
**A.** > 100000 nM

Source: PubChem BioAssay (NCI)
